Data taken from article PMC8145641 (Cells, 2021).
Converted amounts (≈) assume the structure as drawn. Read-outs that look alike come from different tables or passages of the source.

What was measured:
[1] = test system: T. gondii RH-GFP; experiment: Kinetics of T. gondii growth, Assay 1 (intracellular tachyzoites); assay type: cell-based, Toxoplasma gondii; conditions: for effect on the kinetics of T. gondii growth: Assay 1 and Assay 2, Figure 12
Procedure: (§1) Kinetics of T. gondii growth: The effect of 12b and drugs on kinetics of T. gondii RH-GFP growth was performed as follows: 1 × 10^4 per well of Hs27 cells were seeded on black, 96-well, tissue culture-treated plates with optical bottoms in DMEM cell culture medium.
Assay 1—After 72 h of incubation, the medium was removed and then 1 × 10^5 per well of tachyzoites of the RH strain were added to the cell monolayers, in DMEM without phenol red with 3% HIFBS. One hour later, the compound 12b and drugs dilutions in the DMEM without phenol red medium were added to the Hs27 cells with T. gondii.
(§2) The plates were read with covered lids, and both excitation (475 nm) and emission (509 nm) from the bottom using multimode microplate reader SpectraMax® i3. Additionally, fluorescence measurement was performed every 24 h. The plates were incubated at 37 °C with 5% of CO2. The results were expressed as mean fluorescent intensity (MFI). The initial value for 1 × 10^5 of T. gondii RH-GFP was 37,000 MFI (log 4.57). The lower limit of detection was 1000 MFI (log 3.0). Data presented as a logarithm of mean fluorescence intensity (logMFI) on concentration and time dependent curves. All experiments were performed in triplicate.

[2] = test system: T. gondii RH-GFP; experiment: microbe, parasite or virus in culture; assay type: cell-based, Toxoplasma gondii
Procedure: Cell and parasite culture: The Hs27 (human foreskin fibroblast) (ATCC® CRL-1634™) (ATCC, Manassas, VA, USA) were culturing in DMEM (Dulbecco’s modified Eagle’s medium-ATCC® 30-2002™, ATCC) supplemented with 10% fetal bovine serum (fetal bovine serum, ATCC® 30-2020™, ATCC), 100 I.U./mL penicillin and 100 μg/mL streptomycin (penicillin-streptomycin solution ATCC® 30-2300™, ATCC). Cells were trypsinized (Trypsin-EDTA Solution ATCC® 30-2101™, ATCC) twice a week and seeded at a density of 1 × 10^6 per T25 cell culture flask and incubated in a 37 °C and 5% CO2 to achieve a confluent monolayer. The RH strain of Toxoplasma gondii (RH-GFP ATCC® 50940™, ATCC, highly virulent, haplogroup first, expression of green fluorescent protein) was maintained as tachyzoites, in parasite culture medium, which contains DMEM medium with 3% HIFBS (heat-inactivated FBS; 1 h in 56 °C). Infected tissue culture cells were incubated in a 37 °C and 5% CO2.
After 72 h of incubation, the medium was removed and then 1 × 10^5 per well of tachyzoites of the RH strain were added to the cell monolayers, in DMEM without phenol red with 3% HIFBS. One hour later, the compounds and drugs dilutions in the DMEM without phenol red medium were added to the Hs27 cells with T. gondii. Concentration of the compounds below cytotoxic concentration (<CC30), sulfadiazine 0–10,000 μM and trimethoprim, pyrimethamine and atovaquone 0–200 μM. After a subsequent 96 h of incubation, the plates were read with covered lids, and both excitation (475 nm) and emission (509 nm) from the bottom using multimode microplate reader SpectraMax® i3. The results were expressed as mean fluorescent intensity (MFI) and transformed to the percentage of viability compared to untreated cells. Finally, the inhibitory concentrations for 50% inhibition of T. gondii proliferation (IC50) were calculated. All experiments were performed in triplicate.
Graphs and statistical analyses: Statistical analyses and graphs were performed using GraphPad Prism version 9.0.0 for macOS (GraphPad Software, San Diego, CA, USA). […] Additionally, a relationship between cytotoxicity and antiparasitic activity were calculated as the ratio of the 30% cytotoxic concentration (CC30) to the 50% antiparasitic concentration (IC50) and presented as the selectivity index (SI).

[3] = test system: Hs27 (human foreskin fibroblast); experiment: Cytotoxicity assay (MTT); assay type: cell-based; conditions: 24 h treatment
[4] = test system: T. gondii; conditions: values from the earlier paper; ref [25]; cited from earlier work
[5] = test system: T. gondii RH-GFP; experiment: Kinetics of T. gondii growth, Assay 2 (pre-incubated extracellular tachyzoites); assay type: cell-based, Toxoplasma gondii; conditions: 24 h after infection
Procedure: as §1
Assay 2—After 72 h of incubation, the medium was removed and DMEM without phenol red with 3% HIFBS, was added. In the new 96-well, tissue culture-treated plates 2 × 10^5 per well of tachyzoites of the RH strain were added and treated for 3, and 6 h with the compound 12b and drugs (diluted in the DMEM without phenol red medium) at 37 °C. Then tachyzoites were wash out three times in DPBS, resuspended in DMEM without phenol red medium with 3% HIFBS, and finally 1 × 10^5 per well of tachyzoites were added to the Hs27 cells.
as §2, with “All experiments were performed in triplicate.” left out

[6] = test system: tachyzoites of the RH-GFP strain; experiment: Influence of compounds during Toxoplasma growth, Assay A (invasion); assay type: cell-based, Toxoplasma gondii
Procedure: (§3) Influence of Compounds during Toxoplasma Growth (Assay A and B): Hs27 cells were cultured on Lab-Tek™ 4-well Chamber Slides (Nunc, Thermo Fisher Scientific, Waltham, MA, USA) (5 × 10^4 cells/500 μL per well).
Assay A—after 48 h, the medium was removed and then 5 × 10^5/500 µL/well tachyzoites of the RH-GFP strain were added to the cell monolayers, in parasite culture medium with the selected compounds at IC50 concentration: 2b, 5b, 8b, 11b or 12b, for 3 h. Then, the cells were washed to remove extracellular parasites and parasite culture medium (without any compounds) was added for 24 h.
(§4) In both assays as the controls, Hs27 cells were infected, but not treated. After subsequent 24 h of incubation (Assay A and B), the slides were washed with sterile PBS, fixed with formaldehyde solution (252549, Sigma-Aldrich), 3.7% in PBS for 20 min and stained with DAPI for 10 min (1 mg/mL, ThermoFisher Scientific). Microscopic analysis of 100 cells in turn, comprised of counting the infected cell ratio and tachyzoites per each parasitophorous vacuoles of infected cell, was performed using a fluorescent microscope (Axio Scope.A1, Carl Zeiss, Jena, Germany) at a magnification ×1000. For image processing ZEISS ZEN Microscope Software version 3.1 was used. Three independent experiments on triplicate chamber slides using the same conditions for both assays were performed.

[7] = test system: tachyzoites of the RH-GFP strain; experiment: Influence of compounds during Toxoplasma growth, Assay B (intracellular proliferation); assay type: cell-based, Toxoplasma gondii; conditions: 3 h infection without compound, washed, 24 h with compound at IC50
Procedure: as §3
Assay B—after 48 h, the medium was removed and then 5 × 10^5/500 µL/well tachyzoites of the RH-GFP strain were added to the cell monolayers, in parasite culture medium for 3 h.
as §4

[8] = Toxoplasma gondii, HS27, 96 h, read-out: IC50 (50% inhibition of T. gondii proliferation)
[9] = ratio of CC30 (Hs27) to IC50 (T. gondii); 1b–12b and positive controls
[10] = compared to non-treated host cells, compound at IC50 concentration, assay not named in abstract
[11] = compound at IC50 present 3 h during infection, washed, 24 h free medium, vs non-treated

Row | Structure (SMILES) | effect on the kinetics of T. gondii growth [1] | IC50 [2, 8] | SI (selectivity index, CC30/IC50) [2, 9] | CC30 (cytotoxic concentration causing 30% of cells proliferation inhibition) [3] | IC50 (50% inhibition of T. gondii proliferation) [4] | reduction of the number of newly formed parasites in Hs27 host cells ([5]; 3 h pre-incubation of tachyzoites) | reduction of the number of newly formed parasites in Hs27 host cells ([5]; 6 h pre-incubation of tachyzoites) | reduction in number of tachyzoites per vacuole [6, 10] | reduction in the percentage of infected host cells [6, 10] | number of tachyzoites per vacuole (Assay A) [6, 11] | percentage of infected cells (Assay A) [6, 11] | number of intravacuolar tachyzoites (Assay B) [7] | percentage of infected cells (Assay B) [7] | size of parasitophorous vacuole (Assay B) [7] | inhibition at 250 µM ([1]; Toxoplasma gondii, Assay 1, 250 µM (95.50 µg/mL), first 24 h post-infection, maintained for the next 72 h) | IC50 ([2]; Toxoplasma gondii, HS27, 96 h; read-out: IC50 (50% inhibition of T. gondii proliferation))
1 | Nc1ccc(S(=O)(=O)Nc2ncccn2)cc1 [Sulfadiazine (SUL), Sulfadiazine, reference compound] | only moderately slow down the proliferation of tachyzoites | 1250 µg/mL (≈ 5010 µM) | 1.78 | 2230.61 µg/mL | 2721.45 µg/mL | – | – | – | – | – | – | – | – | – | – | –
2 | COc1cc(Cc2cnc(N)nc2N)cc(OC)c1OC [Trimethoprim (TRI), Trimethoprim, reference compound] | only moderately slow down the proliferation of tachyzoites | 14.8 µg/mL (≈ 50.9 µM) | 1.20 | 17.78 µg/mL | 12.13 µg/mL | – | – | – | – | – | – | – | – | – | – | –
3 | Cc1nc[nH]c1-c1nnc(Nc2ccc(I)cc2)s1 [12b] | – | – | 20.89 | 98.18 µg/mL | – | 80% | 89% | 93% | 44% | significant reductions | significant reductions | significant reduction | still the same | significant reduction | 97% | 4.7 µg/mL (≈ 12.3 µM)
